# Test results from US20230304010A1, “COMPOSITIONS AND METHODS FOR TREATING VIRAL INFECTIONS” (priority 2020, published 2023).
# Several values for one entry are separate records, joined by “and”; a condition that tells them apart may be missing. Equal values may be shown once. Read-outs that look alike come from different tables or passages of the source. Ends that are not written are not given here.
# How the values were obtained:
# [1] = tested on: Vero E6 cells; details: for Cell Viability (%): 0.5 µM
# [2] = tested on: SARS-CoV-2; assay: microbe, parasite or virus in culture
# [3] = target: ACE2:SARS-CoV-2 Spike interaction (UniProt P0DTC2+Q9BYF1); assay: biochemical; assay type: binding
# Sequence of ACE2:SARS-CoV-2 Spike interaction (Q9BYF1 18-740, one chain of several): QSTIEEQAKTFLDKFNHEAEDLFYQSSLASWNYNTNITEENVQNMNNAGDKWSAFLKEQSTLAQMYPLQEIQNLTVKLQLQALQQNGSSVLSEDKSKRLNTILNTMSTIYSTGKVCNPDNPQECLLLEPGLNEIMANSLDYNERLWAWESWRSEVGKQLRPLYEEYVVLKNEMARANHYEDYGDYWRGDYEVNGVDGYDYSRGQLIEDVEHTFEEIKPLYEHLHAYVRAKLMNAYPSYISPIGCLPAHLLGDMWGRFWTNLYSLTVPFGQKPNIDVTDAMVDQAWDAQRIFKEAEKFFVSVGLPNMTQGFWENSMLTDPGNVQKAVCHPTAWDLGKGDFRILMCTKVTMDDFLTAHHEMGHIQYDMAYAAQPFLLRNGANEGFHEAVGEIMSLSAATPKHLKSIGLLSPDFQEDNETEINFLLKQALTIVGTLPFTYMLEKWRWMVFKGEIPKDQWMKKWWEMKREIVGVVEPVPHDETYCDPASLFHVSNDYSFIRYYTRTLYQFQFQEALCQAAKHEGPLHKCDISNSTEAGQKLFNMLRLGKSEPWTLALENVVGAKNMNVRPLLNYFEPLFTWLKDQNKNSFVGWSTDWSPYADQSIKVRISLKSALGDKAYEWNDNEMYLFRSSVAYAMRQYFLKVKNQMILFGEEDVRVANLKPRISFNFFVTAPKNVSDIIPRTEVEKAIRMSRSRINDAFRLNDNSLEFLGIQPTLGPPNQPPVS
# [4] = target: SARS-CoV-2 Spike: ACE2 interaction (UniProt P0DTC2+Q9BYF1); assay: biochemical; assay type: binding
# Sequence of SARS-CoV-2 Spike: ACE2 interaction (Q9BYF1 18-740, one chain of several): as above
# [5] = Nanoparticle formation of peptides with ADGN-106: mean size and polydispersity (Zetasizer); assay type: physicochemical; details: 25° C.; for Mean Size (nm): peptide/ADGN-106 complexes; for PI: polydispersity index of peptide/ADGN-106 complexes
# Excerpt: We then tested the ability of the different peptides to form nanoparticle organization in the presence of ADGN-106 or ADGN-100 peptide. […] Peptides were complexed with 5 or 10 molar excess of ADGN-106.
# [6] = tested on: SARS-CoV-2
# [7] = in vitro; details: uninfected Vero E6 cells
# [8] = Lung and liver toxicity studies after intratracheal instillation
# Procedure: Single dose of peptides or peptide/siRNA complexes were administrated via intratracheal instillation (200 μg) (Table 20). Saline solution was used as negative control. Samples were collected 12, 24, 48 and 72 hr post administration.
# The body weight of the mice were recorded before intratracheal instillation (day 0), at day1, day 2 and before being sacrificed (day 3). The lung, liver, heart, kidney and brain were collected at day 3 and organ index were determined.
# Bronchoalveolar lavage (BAL) were performed 2 days after instillation. The percentage of the cells, the total protein and level of LDH in the BAL were analyzed.
# AST and ALT levels in the plasma were assayed 2 days after instillation.
# [9] = tested on: SARS-CoV-2; remark: listed apart in the source
# [10] = tested on: SARS-CoV-2 ORF 3A gene; assay type: cell-based
# [11] = tested on: SARS-CoV-2; assay: siRNA/ADGN-100 complexes on SARS-CoV2 virus infection, Vero E6 cells; assay type: cell-based
# [12] = tested on: Vero-6 cells; assay: Cellular toxicity of siRNA/ADGN-100 complexes on Vero-6 cells, CellTiter-Glo; details: uninfected Vero-6 cells
# [13] = tested on: SARS-CoV-2 Nucleocapsid gene; assay type: cell-based
# [14] = tested on: SARS-CoV-2 ORF 8 gene; assay type: cell-based
# [15] = tested on: SARS-CoV-2 nucleocapside; assay type: cell-based; details: read-out: IC50 of silencing response
# [16] = read-out: SARS-COV2 IC50, original strain, second Table 19, siRNA complexed at molar ratio 1/20
# [17] = read-out: IC50 against SARS-CoV2 virus infection
# [18] = siRNA complexed with ADGN-100 at molar ratio 1/20, added to Vero-E6 immediately prior to virus infection, read-out: IC50
molecule,measurement,setting,value
CCN(CCO)CCCC(C)Nc1ccnc2cc(Cl)ccc12 (centres unmarked) [Hydroxy chloroquine],TD50,[1]; African green monkey,190 ± 28 µM
same,IC50,"[2]; Severe acute respiratory syndrome coronavirus 2, Vero C1008, read-out: IC50 against SARS-CoV2 virus infection",4400 ± 215 nM
same,IC50,"[2]; Severe acute respiratory syndrome coronavirus 2, Vero C1008, read-out: P-IC50 (nM)",4700 nM
same,IC50,"[2]; Severe acute respiratory syndrome coronavirus 2, Vero, read-out: D-IC50 (nM)",4400 ± 215 nM
CSCC[C@H](NC(=O)[C@H](CC(N)=O)NC(C)=O)C(=O)N[C@H](C(=O)N[C@@H](CCC(N)=O)C(=O)NCC(=O)N[C@@H](Cc1ccccc1)C(=O)N[C@@H](Cc1c[nH]c2ccccc12)C(=O)N[C@@H](CCC(=O)O)C(=O)N[C@@H](CC(N)=O)C(=O)N1CCC[C@H]1C(=O)NCC(=O)NCC(=O)N1CCC[C@H]1C(=O)N[C@H](C(=O)N[C@@H](C)C(=O)N[C@@H](Cc1c[nH]c2ccccc12)C(=O)N[C@@H](CC(=O)O)C(=O)N[C@@H](CC(C)C)C(=O)NCC(=O)N[C@@H](CCCCN)C(=O)NCCCCCC(=O)N[C@@H](CC(C)C)C(=O)N[C@@H](Cc1c[nH]c2ccccc12)C(=O)N[C@@H](CCCNC(=N)N)C(=O)N[C@@H](C)C(=O)N[C@@H](CC(C)C)C(=O)N[C@@H](Cc1c[nH]c2ccccc12)C(=O)N[C@@H](CCCNC(=N)N)C(=O)N[C@@H](CC(C)C)C(=O)N[C@@H](Cc1c[nH]c2ccccc12)C(=O)N[C@@H](CCCNC(=N)N)C(=O)N[C@@H](CO)C(=O)N[C@@H](CC(C)C)C(=O)N[C@@H](Cc1c[nH]c2ccccc12)C(=O)N[C@@H](CCCNC(=N)N)C(=O)N[C@@H](CC(C)C)C(=O)N[C@@H](CC(C)C)C(=O)N[C@@H](Cc1c[nH]c2ccccc12)C(=O)N[C@@H](CCCCN)C(N)=O)[C@@H](C)O)[C@@H](C)O [Seq38],IC50,[3]; ACE2:SARS-CoV-2 Spike IC50,103 ± 17 nM
same,IC50,[4]; SARS-CoV-2 Spike:ACE2 IC50,214 nM
same,Mean Size (nm),[5],39 ± 10 nm
same,PI,[5],0.25
same,Residual Infection (%),[6],80%
same,viability at 0.5 µM,[7],68%
Ac-G*FQPTNGVK*-Ava-LWRALWRLWRSLWRLLWK-NH2 [Seq21],Mean Size (nm),[5],78.2 ± 7 nm
same,PI,[5],0.3
same,Residual Infection (%),[6],79%
same,Cell Viability (%),[1]; uninfected Vero E6 cells,78%
Ac-G*NYNYLYRLFK*-Ava-LWRALWRLWRSLWRLLWK-NH2 [Seq15],IC50,[3]; read-out: ACE2:SARS-CoV-2 Spike IC50,> 10000 nM
same,IC50,[4]; read-out: SARS-CoV-2 Spike:ACE2 IC50,> 1000 nM
same,Mean Size (nm),[5],37.5 ± 5 nm
same,PI,[5],0.23
same,Residual Infection (%),[6],100%
same,Cell Viability (%),[1]; uninfected Vero E6 cells,95%
Ac-KTFLDKFNHEAEDLFPGPKWSAFLKEQSTLAQMYG [Seq28],folds more potent than SBP-1-ADGN-106/ADGN-106 complex,[3],6 folds
same,folds more potent than SBP-1 coupled to ADGN-106,[3],6 folds
same,folds more potent than SBP-1 peptide/ADGN-106 complex,[3],40 folds
same,folds more potent than free SBP-1,[3],15 folds
same,folds more potent than SBP-1-ADGN-106/ADGN-106 complex,[4],4 folds
same,folds more potent than SBP-1 coupled to ADGN-106,[4],3.5 folds
same,folds more potent than SBP-1 peptide/ADGN-106 complex,[4],35 folds
same,folds more potent than free SBP-1,[4],7 folds
same,Mean Size (nm),[5],34.6 ± 7 nm
same,PI,[5],0.18
same,Residual Infection (%),[6],10%
same,fold stronger anti-SARS-CoV-2 activity than hydroxychloroquine sulfate,[6],250 fold
same,increase of potency by pre-incubation with SARS CoV-2 prior infection,[6],2 factor
same,inhibition of viral infection,[6],exhibit inhibition of viral infection
same,CC50,[7],290000 ± 51000 nM
same,viability at 0.5 µM,[7],78%
Ac-N*GVEGFNK*Ava-LWRALWRLWRSLWRLLWK-NH2 [Seq17],Mean Size (nm),[5],57 ± 4 nm
same,PI,[5],0.17
same,percentage of the cells in bronchoalveolar lavage,"[8]; 2 days after instillation, versus saline",slight increases of macrophages
same,lung and liver toxicity associated to treatment,"[8]; mouse, in vivo",no lung and liver toxicity
same,Residual Infection (%),[6],20%
same,inhibition of viral infection,[6],exhibit inhibition of viral infection
same,reduction of anti-viral activity by pre-incubation,[6],2 fold
same,IC50,[6]; read-out: D-IC50,21.5 ± 12 nM
same,IC50,"[6]; read-out: IC50, SARS-COV2",31.5 ± 12 nM
same,IC50,[6]; read-out: P-IC50,57.2 ± 12 nM
same,TD50,[1]; uninfected Vero E6 cells,340 ± 28 µM
same,Cell Viability (%),[1]; uninfected Vero E6 cells,85%
same,IC50,[9]; [16],31.5 ± 12 nM
same,IC50,"[9]; treatments added to Vero-E6 immediately prior to virus infection, Table 16",27.5 ± 11 nM
Ac-S*YGFQPTNGV*-Ava-LWRALWRLWRSLWRLLWK-NH2 [Seq20],Mean Size (nm),[5],68.1 ± 5 nm
same,PI,[5],0.25
same,Residual Infection (%),[6],65%
same,inhibition of viral infection,[6],exhibit inhibition of viral infection
same,Cell Viability (%),[1]; uninfected Vero E6 cells,91%
Ac-T*NGVGYQPYK*-Ava-LWRALWRLWRSLWRLLWK-NH2 [Seq22],blocked SARS-CoV-2 Spike: ACE2 interaction,[4],blocked
same,fold less potent than Seq20/Seq21,[4],3.6 fold
same,Mean Size (nm),[5],54.4 ± 8 nm
same,PI,[5],0.24
same,Residual Infection (%),[6],40%
same,inhibition of viral infection,[6],exhibit inhibition of viral infection
same,reduction of virus infection,[6],60%
same,IC50,[6]; read-out: D-IC50,124 ± 14 nM
same,IC50,[6]; read-out: P-IC50,145 ± 25 nM
same,TD50,[1]; uninfected Vero E6 cells,358 ± 27 µM
same,Cell Viability (%),[1]; uninfected Vero E6 cells,87%
CAAGTCCTATTTCTGAACATG (chemistry not given here) [DIVC-33],IC50,[10],57.2 ± 12 nM
GAACATGTTACCTTCTTCATC (chemistry not given here) [DIVC-34],IC50,[10],12.3 ± 1 nM
same,IC50,[11]; [17],~1000 nM
same,IC50,[11]; [18],1450 nM
same,TD50 (μM),[12],589 + 17 μM
GACAAGGCGTTCCAATTAACA (chemistry not given here) [DIVC-3],IC50,[13],11.4 ± 5 nM
same,IC50,[11]; [18],84 ± 14 nM
same,TD50 (μM),[12],452 + 20 μM
GACCCGTGTCCTATTCACTTC [DIVC-82],IC50,[14],21.7 ± 7 nM
GCCTCTTCTCGTTCCTCATCA (chemistry not given here) [DIVC-8],IC50,[13],27.3 nM
same,IC50,[11]; [18],117 nM
same,TD50 (μM),[12],548 + 25 μM
GCGTTGTTCGTTCTATGAAGA (chemistry not given here) [DIVC-84],IC50,[14],113 ± 15 nM
GGCCAAACTGTCACTAAGAAA (chemistry not given here) [DIVC-6],IC50,[13],8.7 ± 2 nM
same,fold stronger anti-SARS-CoV-2 activity than hydroxychloroquine sulfate,[11],64 fold
same,IC50,[11]; [18],68 ± 12 nM
same,IC50,[15],11 nM and 8.7 nM
same,IC50,[9]; [16],68 nM
same,TD50 (μM),[12],652 + 24 μM
GGTGAAATCAAGGATGCTACT [DIVC-31],IC50,[10],18.4 ± 2 nM
GTCCTATTCACTTCTATTCTA (chemistry not given here) [DIVC-85],IC50,[14],10.8 ± 2 nM
same,IC50,[11]; [17],~1000 nM
same,IC50,[11]; [18],1220 nM
same,TD50 (μM),[12],248 + 35 μM
GTGGATGAGGCTGGTTCTAAA [DIVC-83],IC50,[14],15.4 ± 3 nM
GTGTAACTTCTTCAATTGTCA (chemistry not given here) [DIVC-32],IC50,[10],95.1 ± 7 nM
GTTGATGACCCGTGTCCTATT (chemistry not given here) [DIVC-81],IC50,[14],> 200 nM
"KWRSAGWRWRLWRVRSWSR [ADGN-100, reference compound]",TD50 (μM),[12],368 + 18 μM
TGCAGAGTATAAACTTTGTAA (chemistry not given here) [DIVC-35],IC50,[10],125 ± 11 nM
